Where “and” joins values, the source holds several entries; their conditions need not be identical. Equal entries are not always repeated.
What was measured:
[1] = tested on: HeLa cells; assay: Flow cytometry of HeLa cells, cytosolic entry of NF-labeled peptides; type: cell-based; conditions: for MFI^NF (Cytosolic Entry): 1% FBS, relative to CPP12 (100%)
Protocol: Flow cytometry. HeLa cells were cultured in 12-well plates (1.5×10^5 cells/well) overnight. The following day, cells were incubated with 5 μM fluorescently labeled peptide for 2 h in DMEM supplemented with 1% FBS and 1% antibiotic solution. DMSO was used as a negative control. After incubation, cells were detached from plate with 350 μL of 0.25% Trypsin-EDTA solution, diluted with Dulbecco's phosphate buffered saline (DPBS), and pelleted at 300 g for 5 min. Cells were washed twice with DPBS, resuspended in DPBS, and analyzed on a BD FACS LSR II flow cytometer.
To evaluate their cell entry efficiencies, the BCPs and pBCPs were labeled with tetramethylrhodamine (TMR) or naphthofluorescein (NF) on a C-terminal lysine residue (FIGS. 2A, 2B, and 4). […] The labeled peptides were purified again by reversed-phase HPLC and their authenticity was confirmed by high-resolution mass spectrometry.
HeLa cells were treated with 5 μM dye-labeled BCPs (or pBCPs), CPP12, Tat, or DMSO (equal volume) for 2 h at 37° C., washed to remove any peptides in the medium, and analyzed by flow cytometry. The mean fluorescence intensity (MFI) value of TMR (which is pH insensitive) reflects the total amount of CPP inside the HeLa cells (total cellular uptake). On the other hand, NF is a pH sensitive dye, having an apparent pKa of 7.8. NF is unprotonated and fluorescent inside the neutral environment of the cytosol (and nucleus) but is nearly completely protonated and nonfluorescent in the acidic environments of endosomes and lysosomes. Thus, the MFI value of NF provides a convenient estimate of the peptides that have reached the cytosol.
Note that cell entry assays were performed by treating HeLa cell with 2 μM naphthofluorescein (NF)-labeled peptide for 2 h at 37° C. Under this condition, the BCPs enter the cell almost exclusively by endocytosis and endosomal escape. A small fraction of the CPP12^NF-treated cells (˜10%) underwent direct translocation of CPP12^NF; this fraction of highly fluorescent cells was not included in the data analysis. The cellular entry of pBCP427-4 was confirmed by live-cell confocal microscopy (FIG. 6).
BCP16a, BCP16b, and pBCP427-4a were labeled with NF and their cytosolic entry efficiencies were assessed by flow cytometry analysis of HeLa cells after treatment with 2 μM peptide at 37° C. for 2 h. […] CPP12 was previously shown to be highly sensitive to serum proteins (Buyanova, M., et al., (2022). Discovery of a Cyclic Cell-Penetrating Peptide with Improved Endosomal Escape and Cytosolic Delivery Efficiency. Molecular pharmaceuties, 19 (5). 1378-1388).

[2] = tested on: NIH 3T3 cells; assay: Confocal microscopy of NIH 3T3 cells; type: cell-based; conditions: 2 μM peptide, 37° C., 2 h
Protocol: The cytosolic entry efficiencies of CPP12, BCP16a, BCP16b, and pBCP427-4a were also assessed by confocal microscopy of NIH 3T3 cells after treatment with 2 μM peptide at 37° C. for 2 h.

[3] = tested on: HeLa cells; assay: Live-cell confocal microscopy of HeLa cells; type: cell-based
Protocol: Confocal microscopy. HeLa cells (5×10^5 cells/mL in 300 μL volume) were cultured overnight in DMEM (10% FBS, 1% antibiotic solution) in a Grenier Bio-One 35/10 mm glass-bottomed microwell dish with four compartments. The following day, cells were incubated with 5 μM fluorescently labeled peptide for 2 h in phenol-red free DMEM (1% FBS, 1% antibiotic solution) and washed with warm media prior to imaging. Cells were imaged on a Nikon A1R live-cell confocal laser scanning microscope (ECLIPSE Ti-E automated, inverted) equipped with a 100× oil objective (1.45 N.A.) and a heated chamber (37° C.) supplied with 5% CO2. TMR-labeled peptides were imaged by excitation with a λEx of 561 nm. Differential interference contrast (DIC) images were obtained to validate the morphology of cells.
The cellular entry of BCP1-3 was further confirmed by live-cell confocal microscopy. HeLa cells were incubated with 5 μM TMR-labeled peptide for 2 h in the presence of 1% FBS in media. The cells were washed twice with fresh media and imaged without fixation.
To assess cellular delivery by confocal microscopy, HeLa cells were cultured overnight in a 4-well, 35-mm glass bottom microscope dish at a density of 50,000 cells/mL (300 μL per well). The following day, the cells were washed twice with DPBS and incubated with 5 μM protein for 4 h in phenol red free DMEM with 1% FBS. […]

[4] = tested on: HEK293T cells; assay: Cytotoxicity, Promega CellTiter-Glo 2.0 assay, HEK293T; type: cell-based; conditions: 72 h, read-out: IC50 (concentration at which 50% of cells are nonviable)
Protocol: (§1) Cytotoxicity of BCPs. The cytotoxicity of pBCP427-4 and BCP16 was tested 20) against HeLa and HEK293T cell lines by using Promega's Cell-Glo assay. The cells were seeded in a 96-well plate (5000 cells/well) in 100 μL of DMEM supplemented with 10% FBS and 1% penicillin/streptomycin. The following day. 10 μL of peptide of various concentrations was added to the cells. A row of wells was treated with DMSO as a control. After 72 h, all wells were treated with an equal volume (110 μL) of Promega CellTiter-Glo 2.0 assay solution and shaken for 30 min. Luminescent signal was measured on a Tecan Infinite Pro plate reader.

[5] = tested on: HeLa cells; assay: Cytotoxicity, Promega CellTiter-Glo 2.0 assay, HeLa; type: cell-based; conditions: 72 h, read-out: IC50 (concentration at which 50% of cells are nonviable)
Protocol: as §1

[6] = Proteolytic stability in 25% human serum (UPLC-MS); type: in vitro ADME; conditions: 100 μM peptide, 25% human serum in PBS, 37° C.; read-out: Serum t1/2
Protocol: Proteolytic Stability of BCP4, BCP16, and pBCP427-4. BCPs (100 μM) were incubated in 25% human serum diluted in phosphate-buffered saline for 24 h at 37° C. One hundred-μL aliquots were withdrawn from the mixture at various time points and mixed with 200 μL of 1:1 (v/v) 15% trichloroacetic acid in methanol and acetonitrile. The samples were centrifuged for 5 min in a microcentrifuge and stored at 4° C. until analysis by UPLC-MS equipped with a C-18 column. The column was eluted with a linear gradient of 5-100% acetonitrile in water containing 0.1% TFA over 7.5 min and the eluant was monitored at 214 nm. The area underneath the peak for any remaining BCP was integrated and compared to that at time 0 and the percentage of remaining BCP was plotted as a function of the incubation time. When integration of the UV absorbance was not possible due to overlapping of the peptide signal with that of serum proteins, the signal abundance from the mass spectrum was used to estimate the % peptide remaining.
Proteolytic Stability of pBCP427-4 and pBCP427-4Ala. BCPs (100 μM) were incubated in 25% human serum diluted in phosphate-buffered saline for 24 h at 37° C. […] The column was eluted with a linear gradient of 5-100% acetonitrile in water containing 0.1% TFA over 7.5 min and the eluant was monitored at 214 nm.

[7] = tested on: intracellular Keap1-Nrf2 interaction; assay: ARE reporter-HepG2 luciferase assay of CPP/BCP-K1 conjugates; type: cell-based; conditions: ARE-Reporter HepG2 cells, 10 μM peptide, 18 h
Protocol: Cytosolic Delivery of Peptidyl Cargo. […] An important role of Nrf2-ARE pathway in the cellular defense mechanism. Journal of biochemistry and molecular biology, 37(2), 139-1438). Under basal conditions, Nrf2 interacts with Keap1 and is retained in the cytosol or degraded by the proteasome. However, upon blocking the Keap1-Nrf2 interaction, Nrf2 accumulates and translocates into the nucleus, inducing the expression of luciferase.
One hundred μL of ARE-Reporter Hep G2 cells were seeded in a 96-well plate at 5000 cells/well in minimum essential media supplemented with 10% FBS and 1% penicillin/streptomycin. The following day, 10 μL of peptide of various concentrations was added to the cells to give final concentrations of 0.625-10 μM. Cells treated with DMSO were used as a control. After 18 h, the cells were treated with an equal volume (110 μL) of BPS bioscience ONE-Step luciferase assay solution and shaken for 30 min. The luminescent signal was measured on a Tecan Infinite Pro plate reader.

[8] = biological target: Keap1 (Homo sapiens, UniProt Q14145); conditions: read-out: KD for Keap1; cited from earlier work
Keap1, sequence (Q14145 whole entry, species assumed): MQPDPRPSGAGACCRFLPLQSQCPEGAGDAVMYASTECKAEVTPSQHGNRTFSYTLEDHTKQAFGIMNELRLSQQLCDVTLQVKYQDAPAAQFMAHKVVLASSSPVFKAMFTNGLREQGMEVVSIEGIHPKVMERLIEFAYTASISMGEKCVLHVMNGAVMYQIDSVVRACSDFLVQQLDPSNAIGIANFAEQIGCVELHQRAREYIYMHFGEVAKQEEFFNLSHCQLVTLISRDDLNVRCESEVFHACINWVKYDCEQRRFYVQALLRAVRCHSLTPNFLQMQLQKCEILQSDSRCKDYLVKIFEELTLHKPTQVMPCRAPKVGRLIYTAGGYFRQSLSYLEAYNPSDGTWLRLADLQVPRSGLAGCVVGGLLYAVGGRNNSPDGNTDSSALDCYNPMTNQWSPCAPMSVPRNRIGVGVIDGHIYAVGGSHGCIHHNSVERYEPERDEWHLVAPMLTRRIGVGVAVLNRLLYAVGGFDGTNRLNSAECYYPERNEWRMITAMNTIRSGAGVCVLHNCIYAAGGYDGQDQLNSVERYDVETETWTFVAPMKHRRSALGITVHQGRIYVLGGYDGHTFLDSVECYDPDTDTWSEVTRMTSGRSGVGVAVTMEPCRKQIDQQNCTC

[9] = 2 μM NF-labeled peptide, 2 h, 37° C.

Compound: Ac-cwsnwfcfqrrc [pBCP427-4a]
- MFI^NF (Cytosolic Entry) [1, 9]: 33% and 33 ± 1%
- cytosolic entry efficiency in the presence of 10% FBS ([1]; 2 μM NF-labeled peptide, 2 h, 37° C., 10% FBS, relative to CPP12): 85%
- cytosolic entry by fluorescence intensity, compared with CPP12 [2]: less active than CPP12

Compound: CWSNWFCFQRRC [pBCP427-4]
- cellular entry seen by live-cell confocal microscopy ([3]; 2 or 5 μM TMR-labeled peptide, 2 h, 37° C.): confirmed
- IC50 [4]: 16 µM
- IC50 [5]: > 50 µM
- MFI^NF (Cytosolic Entry) [1, 9]: 189% and 189 ± 6%
- improvement of cytosolic entry efficiency by bismuth cyclization ([1]; 2 μM, pBCP427-4 vs pBCP427-4Ala): ~10 fold

Compound: CC(=O)N[C@@H](Cc1ccc(O)cc1)C(=O)NCC(=O)N[C@@H](CCCNC(=N)N)C(=O)N[C@@H](CCCCN)C(=O)N[C@@H](CCCCN)C(=O)N[C@@H](CCCNC(=N)N)C(=O)N[C@@H](CCCNC(=N)N)C(=O)N[C@@H](CCC(N)=O)C(=O)N[C@@H](CCCNC(=N)N)C(=O)N[C@@H](CCCNC(=N)N)C(=O)N[C@@H](CCCNC(=N)N)C(=O)NCCOCCOCC(=O)N[C@@H](CCCCNC(=O)c1ccc2c(c1)C(=O)OC21c2ccc3cc(O)ccc3c2Oc2c1ccc1cc(O)ccc21)C(N)=O [Tat]
- half-life at 100 μM [6]: < 30 min

Compound: pBCP427-4-SEP: fusion protein of pBCP427-4 at the N-terminus of superecliptic-pHluorin (SEQ ID NO: 89) (MGSSGSSCWSNWFCFQRRC)
- GFP fluorescence inside the cell (protein delivery) ([3]; 5 μM protein, 4 h, 1% FBS): intense GFP fluorescence inside the cell

Compound: cyclo(GQLDPETGEFL [K1]
- induction of luminescence signal [7]: did not
- Kd [8]: 0.018 µM

Compound: HS-CH2-CO-rRrRCΦ(Bta)φC [BCP16]
- IC50 [4]: 14 µM
- IC50 [5]: 49 µM
